Reference: US6984619B1, “Method for protection against tumor metastasis formation” (Arch Development Corporation, priority 1999, dated 2006)
Where two headings read alike, the source gives them in different places.

Experiments:
[1] = C3H mouse system; cited from earlier work
[2] = system: hprt locus in splenocytes; conditions: mice; cited from earlier work
[3] = cited from earlier work
[4] = system: angiostatin; experiment: Blood angiostatin by Western blot in mice with or without SA-NH tumor; assay type: in vivo, C3Hf/Kam mice
Experimental: FIG. 2. SA-NH Murine Tumor. Tumor cells (3–5×10^5) were injected into right leg muscle of C3Hf/Kam male mice. Each group consisted of 5 mice. Mice were injected i.p. with 50 mg/kg of Amifostine (Ami) one day after innoculation with viable tumor and every third day (4 times) until amputation (Amp). When tumors grew to 8–9 mm in diameter, the tumor-bearing leg was amputated. Blood was collected using a 1 ml tuberculine syringe rinsed with EDTA (100 mg/ml) or heparin and placed in an EDTA-coated microcentrifuge tube and centrifuged at 250 rpm for 10 min. The resulting supernatants were collected and frozen at −70° C. until assayed for angiostatin by Western blot analysis.
Low non-cytoprotective doses of Amifostine, in the range of 50 to 100 mg/kg, were administered every other day for six days to C3Hf/Kam mice bearing SA-NH sarcomas and twice thereafter following the surgical removal of the tumors. […] Amifostine or its free thiol form designated WR-1065 was further evaluated regarding three processes implicated in the metastatic process. (FIG. 2).

[5] = system: MCa-K; experiment: Spontaneous lung metastasis assay, MCa-K adenocarcinoma; assay type: in vivo, C3Hf/Kam mice; conditions: 50 mg/kg WR-2721, MCaK tumor
Experimental: (§1) Animal system and experimental tumors. Experiments have been performed using C3Hf/Kam mice obtained from the University of Texas M.D. Anderson Cancer Center, Houston, Tex. Male mice were at least 110 days of age at the initiation of studies. Studies involving tumors included the use of two syngeneic adenocarcinomas (MCa-K and OCa-I,) and one sarcoma (SA-NH). Tumors were grown in the hind legs or flanks of animals. Single-cell suspensions of 5×10^5 viable tumor cells prepared from excised tumors were injected into the hind leg (spontaneous metastasis assay) or the lateral tail veins (artificial metastasis assay) of mice to develop pulmonary nodules (D. J. Grdina et al., 1974; D. J. Grdina et al., 1977; N. Suzuki et al., 1977; D. J. Grdina et al., 1978). […] Twenty-three days following amputation, the animals were sacrificed, their lungs removed, fixed in Bouin's solution, and lung metastases counted. For the artificial metastases studies, mice were sacrificed 14 days after tumor cell inoculation and lung metastases counted (D. J. Grdina et al., 1974; D. J. Grdina et al., 1977; N. Suzuki et al., 1977; D. J. Grdina et al., 1978).
(§2) Presented in Table 1 is a comparison of the effects of amifostine on the mean number of spontaneous metastases formed in the lungs of mice. […] The level of significance was determined using a t-test for binomial proportions (Walpole and Myers, 1978). […]

[6] = system: SA-NH; experiment: Spontaneous lung metastasis assay, SA-NH sarcoma implanted i.m., leg amputated; assay type: in vivo, C3Hf/Kam mice; conditions: for probability of developing spontaneous metastases (FIG. 1): 200, 100 or 50 mg/kg i.p., greater effects at the lower doses
Experimental: Animal system and experimental tumors. Experiments have been performed using C3Hf/Kam mice obtained from the University of Texas M.D. Anderson Cancer Center, Houston, Tex. Male mice were at least 110 days of age at the initiation of studies. Studies involving tumors included the use of two syngeneic adenocarcinomas (MCa-K and OCa-I,) and one sarcoma (SA-NH). Tumors were grown in the hind legs or flanks of animals. Single-cell suspensions of 5×10^5 viable tumor cells prepared from excised tumors were injected into the hind leg (spontaneous metastasis assay) or the lateral tail veins (artificial metastasis assay) of mice to develop pulmonary nodules (D. J. Grdina et al., 1974; D. J. Grdina et al., 1977; N. Suzuki et al., 1977; D. J. Grdina et al., 1978). For the spontaneous metastases studies, each thiol was administered on the first day following tumor cell inoculation, and then every third day until the tumor reaches 8.0 to 8.5 mm in diameter. At that time the tumor bearing leg is amputated and thiols were administered two and four days later. Twenty-three days following amputation, the animals were sacrificed, their lungs removed, fixed in Bouin's solution, and lung metastases counted. For the artificial metastases studies, mice were sacrificed 14 days after tumor cell inoculation and lung metastases counted (D. J. Grdina et al., 1974; D. J. Grdina et al., 1977; N. Suzuki et al., 1977; D. J. Grdina et al., 1978).
This tumor is p53 wild-type (R. Schimming et al., 1999). A tumor cell suspension containing 5×10^5 viable SA-NH cells was implanted i.m. into the right thighs of three month old male C3Hf/Kam mice. When tumors grew to 8 to 8.5 mm in diameter, each tumor bearing leg was amputated and the animals were then sacrificed 23 days later to assess both the incidence of mice developing metastases and numbers of spontaneous lung metastases formed per mouse. To assess the effects of amifostine on this process, different groups of mice were injected i.p. with 200, 100, or 50 mg/kg of WR-2721 according to the following protocol: drug administration on the first day following inoculation with tumor cells and then every third day until amputation with a final injection 2 days later.
Presented in Table 1 is a comparison of the effects of amifostine on the mean number of spontaneous metastases formed in the lungs of mice. Table 2 presents data regarding the effects of amifostine on affecting the incidence of metastasis formation using these tumor systems. The level of significance was determined using a t-test for binomial proportions (Walpole and Myers, 1978). Treatment of animals with 50 mg/kg of amifostine reduced the incidence of spontaneous metastasis development by these tumors at a level of significance of p<0.025.

[7] = system: OCa-I; experiment: Spontaneous lung metastasis assay, OCa-I adenocarcinoma; assay type: in vivo, C3Hf/Kam mice; conditions: 50 mg/kg WR-2721, OCa tumor
Experimental: as §1, §2

[8] = Blood level of WR-2721 in mice; assay type: in vivo; conditions: 400 mg/kg dose
Experimental: It is also understood that uptake after is species and organ/tissue dependent. The applicable conversion factors and physiological assumptions to be made concerning uptake and concentration measurement are well-known and would permit those of skill in the art to convert one concentration measurement to another and make reasonable comparisons and conclusions regarding the doses, afficacies and results described herein. By way of example only, in mice given 100 mg/kg WR-2721, 30-minute blood levels are reported at 49 micrograms/ml or 0.23 mM. Accordingly, a 400 mg/kg dose would correspond to a concentration of WR-2721 of about 1.0 mM. Likewise, a human subject given about 740 mg/m^2 of WR-2721 (by IV infusion) would have an initial plasma level at about 100 micromol/liter or 0.1 mM.

Structure (SMILES): NCCCNCCSP(=O)(O)O [WR-2721, S-2-(3-aminopropylamino)ethyl phosphorothioic acid]
- cytoprotection at doses below 100 mg/kg [1]: completely ineffective
- dose required for maximum cytoprotection [1]: 400 mg/kg
- doses at which the antimutagenic effect diminishes [2]: less than 10 mg/kg
- net charge ([3]; disulfide form): +4
- net charge ([3]; thiol form): +2
- enhancement of angiostatin levels found in control mice ([4]; Amifostine injections, 50 mg/kg i.p. (FIG. 2)): four-fold
- angiostatin level after removal of tumors ([4]; continued Amifostine treatment following tumor removal): equal to presurgery levels
- induction of angiostatin production ([4]; tumor-free and tumor-bearing mice (FIG. 2)): effective in inducing angiostatin production
- number of spontaneous metastases (mean ± s.e.) [5]: 1.7 ± 1.3
- number of spontaneous metastases (mean ± s.e.) ([6]; 50 mg/kg WR-2721 i.p., lung metastases per mouse, Sa-NH tumor): 2.9 ± 1.1
- reduction in the development of spontaneous metastases in the lungs ([6]; 50 to 100 mg/kg every other day for six days and twice after surgical removal of tumor): four-fold
- probability of developing spontaneous metastases (FIG. 1) ([6]; listed as Amifostine): actually reduced it
- probability of developing spontaneous metastases (FIG. 1) ([6]; listed as amifostine): reduces the chances of developing spontaneous metastases
- number of spontaneous metastases (mean ± s.e.) [7]: 0.5 ± 0.14
- concentration of WR-2721 corresponding to dose [8]: about 1.0 mM
